Measured values as given in ChEMBL document CHEMBL1143968, “Lead identification of acetylcholinesterase inhibitors-histamine H3 receptor antagonists from molecular modeling” (Bioorg Med Chem, 2008).
pIC50: −log10 of the molar value.

Assays:
Acetylcholinesterase = Acetylcholinesterase (Homo sapiens, UniProt P22303); experiment: Inhibition of AChE
Histamine H3 receptor = Histamine H3 receptor (Homo sapiens, UniProt Q9Y5N1); experiment: Inhibition of histamine H3 receptor
Chain of Histamine H3 receptor (Q9Y5N1 whole entry): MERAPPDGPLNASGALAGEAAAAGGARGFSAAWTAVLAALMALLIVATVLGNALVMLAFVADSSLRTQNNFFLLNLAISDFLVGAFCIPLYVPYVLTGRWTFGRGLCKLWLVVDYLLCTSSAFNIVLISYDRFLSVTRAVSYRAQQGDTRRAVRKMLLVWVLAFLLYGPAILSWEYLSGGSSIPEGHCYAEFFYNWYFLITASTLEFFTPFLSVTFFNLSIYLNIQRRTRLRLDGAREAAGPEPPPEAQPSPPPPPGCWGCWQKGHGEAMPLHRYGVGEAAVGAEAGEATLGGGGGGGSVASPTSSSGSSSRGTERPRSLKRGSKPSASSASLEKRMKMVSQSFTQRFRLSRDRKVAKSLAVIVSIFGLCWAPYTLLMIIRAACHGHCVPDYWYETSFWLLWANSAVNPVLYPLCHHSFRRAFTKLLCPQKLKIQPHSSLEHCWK

Chain of Acetylcholinesterase (P22303 whole entry): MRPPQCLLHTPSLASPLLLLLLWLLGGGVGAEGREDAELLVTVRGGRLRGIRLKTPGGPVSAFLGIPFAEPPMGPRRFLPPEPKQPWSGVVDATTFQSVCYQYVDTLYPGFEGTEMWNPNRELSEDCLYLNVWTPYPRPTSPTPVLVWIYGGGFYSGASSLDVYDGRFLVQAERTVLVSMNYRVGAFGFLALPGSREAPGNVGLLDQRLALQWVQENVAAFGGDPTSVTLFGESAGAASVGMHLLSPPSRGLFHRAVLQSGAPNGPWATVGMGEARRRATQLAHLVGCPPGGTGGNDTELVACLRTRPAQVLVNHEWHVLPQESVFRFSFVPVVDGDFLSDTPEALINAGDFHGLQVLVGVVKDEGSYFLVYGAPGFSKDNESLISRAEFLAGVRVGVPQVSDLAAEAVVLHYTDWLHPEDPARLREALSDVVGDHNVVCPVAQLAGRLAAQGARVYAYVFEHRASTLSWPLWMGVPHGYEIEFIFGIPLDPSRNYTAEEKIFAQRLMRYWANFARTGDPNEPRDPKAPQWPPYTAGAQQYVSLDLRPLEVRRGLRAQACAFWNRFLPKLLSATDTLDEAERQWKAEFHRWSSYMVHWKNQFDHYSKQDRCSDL

Row | SMILES | pIC50 (Acetylcholinesterase) | pIC50 (Histamine H3 receptor)
1 | OC1CCN(Cc2ccc(OCCCN3CCCCC3)cc2)CC1 | 5.64 | 9.14
2 | OCCC1CCN(Cc2ccc(OCCCN3CCCCC3)cc2)CC1 | 6.46 | 9.01
3 | OCC1CCN(Cc2ccc(OCCCN3CCCCC3)cc2)CC1 | 5.96 | 8.89
4 | C[N+](C)(C)CCCCCCCCCC[N+](C)(C)C [DECAMETHONIUM] | 5.23 | 6.09
5 | COc1cc2c(cc1OC)C(=O)C(CC1CCN(Cc3ccccc3)CC1)C2 (stereo not given) [DONEPEZIL] |  | 6.46
6 | c1cc(OCCCN2CCCCC2)ccc1CN1CCCCC1 [JNJ-5207852] | 5.49 | 
